In series [1] the test system is women with urinary urgency and frequency. Nature of the series: randomized, double-blind, placebo-controlled study of tolterodine tartrate (Detrol) tablets 1 mg b.i.d. in women with urinary urgency and frequency. It counts as in vivo, human. On the procedure: The objective of a study is to evaluate the efficacy and safety of tolterodine tartrate (Detrol®) tablets 2 mg daily versus placebo, in the treatment of urinary urgency and frequency in women, in a randomized, double-blind, placebo-controlled study. The patients received 1 mg tolterodine b.i.d. or placebo, and the dosage regime was one tablet orally, every 8-12 hours, not to exceed 2 tablets daily. The treatment duration was 10 days, after a 5 day pretreatment baseline phase. […] women were included in the study, and were randomized to either the tolterodine or placebo group. All of the subjects were eligible for intent-to-treat (ITT) and safety analysis. 1077 of the randomized subjects were included in the per-protocol analysis.
Females with symptoms urinary urgency, defined as having to stop the current activity and go immediately to the bathroom at least once a day (severe) or able to finish a task but go right to the bathroom at least twice a day (moderate), were included. Frequency was defined as >7 micturitions per 24 hours. The mean age was 48 years. About 83% of the subjects were Caucasian.
Women were asked to complete a diary recording the time of awakening; number and severity of urgency of each micturition, and the number of episodes of incontinence throughout the day as well as, time when tablets taken. The women were directed to begin using the study drug after 5 days (baseline, pretreatment period): 1 tablet every 8-12 hours not to exceed 2 tablets per day.
Thus, this study was designed to evaluate the efficacy and safety of tolterodine 1 mg twice daily, every 8-12 hours, compared to placebo, in women with urinary urgency and frequency. The primary efficacy endpoints were: • 1. Subject perception of improvement in symptoms of urgency after five days of treatment, vs. baseline period, using a three-point categorical scale (Chi Square analysis): • 2. Mean of daily average severity of urgency for urgent episodes (urgency rating score of at least 1) for the 5-day baseline period vs. first five days of treatment.
A five-point categorical scale was used to assess the severity of urgency experienced at each micturition, ranging from 0 (no discomfort) to 4 (very severe).
The secondary efficacy endpoints were: • 1. Average number of urgency episodes per day per subject for the 5-day baseline period vs. first five days of treatment. • 2. Average urgency score (severity of urgency) per subject for micturition episodes accompanied by urgency (a rating score of at least 1) for the 5-day baseline period vs. first day of treatment. • 3. Average number of micturitions per day per subject for the 5-day baseline period vs. first five days of treatment.
Subject perception of improvement in symptoms or urgency after ten days of treatment, vs. baseline period, using a three-point categorical scale (Chi Square analysis).
The sudden urge to urinate accompanied by frequency of urination is a problem for many adults. The symptoms of urgency are most problematic. Therefore, the primary variables examined the subjective perception of improvement in urgency as well as the severity of urgency in subjects treated with tolterodine 1 mg b.i.d. In addition, the frequency of urination was examined as this is a standard assessment tool commonly used to assess the efficacy of drugs for the treatment of overactive bladder syndrome.
Two populations were analyzed for efficacy: the intent-to-treat (ITT) and the per-protocol populations. The former comprised all individuals randomized to treatment. The latter consisted of those individuals who complied with the protocol with regard to eligibility, visit schedule, diary completion and treatment schedule. All randomized subjects who took study medication were included in the safety analyses. Incidence of adverse events was tabulated for all randomized subjects. […]

In another series the test system is bladder. To be noted: compared with oxybutynin; cited from earlier work.
The test system of series [2] is muscarinic receptors of the salivary gland. As to conditions: compared with oxybutynin; cited from earlier work.
The mark [3] stands for this setting: all analyzed time points, including day 1, compared to placebo.
[4] abbreviates: all analyzed time points, compared to placebo.

Molecules are shown by their SMILES.

For the compound `Cc1ccc(O)c([C@H](CCN(C(C)C)C(C)C)c2ccccc2)c1` [tolterodine, (R)-N,N-diisopropyl-3-(2-hydroxy-5-methylphenyl)-3-phenylpropanamine], the “subjects with AEs related to nervous system disorders” value in series [1] (1 mg b.i.d. oral, 10 days, placebo 2.0%) is reported as 3.0%. For the same compound, the “subjects with adverse events considered related to study medication” value in series [1] (1 mg b.i.d. oral, 10 days, placebo 4.7%) stood at 4.8%. In addition, in series [1] (1 mg b.i.d. oral, 10 days, placebo 4.9%), the “subjects with AEs related to gastrointestinal disorders” value is 5.6%. Moreover, the “subjects reporting adverse events” value in series [1] (1 mg b.i.d. oral, 10 days, placebo 10.7%) worked out at 10.8%. Further, the “subjects with AEs related to nervous system disorders (number)” value in series [1] (1 mg b.i.d. oral, 10 days, placebo 13) was determined as 20 subjects. Also, in series [1] (1 mg b.i.d. oral, 10 days, placebo 31), the “subjects with adverse events considered related to study medication (number)” value is “thirty-two”. Further, the “subjects with AEs related to gastrointestinal disorders (number)” value in series [1] (1 mg b.i.d. oral, 10 days, placebo 32) amounted to 37 subjects. Moreover, the “subjects reporting adverse events (number)” value in series [1] (1 mg b.i.d. oral, 10 days, placebo 70) is given as “Seventy-one”. The “subjects discontinued from the study due to AEs (number)” value in series [1] (1 mg b.i.d. oral, 10 days, placebo four) is listed as “Three”. For the same compound, the “subjects reporting serious AEs (number)” value in series [1] (1 mg b.i.d. oral, 10 days, placebo one) is reported as “Three”. In addition, the “percentage of subjects reporting symptom improvement (subject perception of improvement in symptoms of urgency)” value in series [1] (Day 5, 1 mg b.i.d. oral, compared to placebo) is reported as “statistically significantly higher percentage”. Further, in series [1] (setting [3]), the “decrease in severity of urgency for all micturitions” value is “statistically significantly greater decrease” and the “decrease in severity of urgency for urgent episodes” value was “statistically significantly greater decrease”. Further, in series [1] (setting [4]), the “decrease in the number of micturitions/day” value is “statistically significantly greater decrease” and the “reduction in the number of urgent episodes/day” value is listed as “statistically significantly greater reduction”. For the same compound, the “reduction from baseline in number of micturitions/day” value in series [1] (days 1-5, 1 mg b.i.d. oral, N=660, placebo 1.26) is on record as 1.59. The “improvement from baseline in severity of urgency for urgent episodes (score, 0-4 scale)” value in series [1] (days 1-5, 1 mg b.i.d. oral, placebo 0.19) is 0.27. Moreover, the “potency in the bladder relative to oxybutynin” value with bladder is on record as “equipotent with oxybutynin”. The “affinity for muscarinic receptors of the salivary gland relative to oxybutynin” value in series [2] is reported as “eight times lower”.

The values are drawn from patent US20070155838A1, “New Method for Treating Urinary Disorders” (Pfizer Inc, priority 2003, published 2007).
